Laboratory results from patent US20250319117A1, “METHODS AND COMPOSITIONS FOR TREATING FIBROSIS” (THE UNIVERSITY OF CHICAGO, priority 2021, published 2025).

How the values were obtained:
fibrosis = details: literature [4], [6]; cited from earlier work
[1] = molecular target: Integrin αMβ2 (human, MAC1, on monocyte-derived myofibroblasts) (human) (UniProt P11215); experiment: cell-based or functional assay
[2] = test system: mouse monocyte-derived myofibroblasts; experiment: Mouse monocyte-derived myofibroblast de-differentiation assessed by morphology; type: cell-based; details: 1 week (FIG. 2A, 2B)
Source text: Spleens were pushed through a 100 µm filter to disassociate the cells. Monocytes were purified from disassociated cells by use of a negative selection kit (Stemcell), following the manufacturer's instructions. The purified monocytes were then washed by PBS using five successive 300×G centrifugation steps, in order to remove EDTA from the resulting population. Monocytes were checked for purity using flow cytometry, and average purity was above 95%. The average yield was 1.5 million monocytes per spleen. Monocytes were cultured immediately following purification, at 250,000 monocytes/cm^2.
Human and mouse monocytes were cultured as previously described, using serum-free media (SFM). Briefly, SFM for human cells is composed of fibrolife (Lifeline, Frederick, MD), with 1× ITS-3 (Sigma, St. Louis, MO), 1× HEPES buffer (Sigma), 1× non-essential amino acids (Sigma), 1× sodium pyruvate (Sigma), and penicillin-streptomycin with glutamate (Sigma). For mouse monocytes, 2× concentrations of ITS-3, HEPES buffer, non-essential amino acids, and sodium pyruvate were added, with 50 μM β-mercaptoenthanol (ThermoFisher) and pro-fibrotic supplements M-CSF (25 ng/ml, Peprotech, Rocky Hill, NJ) and IL-13 (50 ng/ml) to induce myofibroblast differentiation. […] Monocytes were allowed to differentiate for 5 days, and counted based on morphology as previously described. […]

[3] = test system: human monocyte-derived myofibroblasts; experiment: Flow cytometry of human monocyte-derived myofibroblasts treated with antibodies or leukadherin; type: cell-based; details: antibody 500 ng/ml, leukadherin 2 ng/ml
Source text: (§1) Myofibroblasts were de-differentiated by addition of antibodies (α-αMβ2, α-αM, α-α3) for 7 days after the 5 day differentiation was completed. Antibodies were free of azide, glycerol, and other preservatives.
(§2) Cultured myofibroblasts were lifted with ice cold trypsin-EDTA (Sigma), followed by mechanical agitation by a rubber policeman. Myofibroblasts were fixed and permeabilized using Cytofix/Cytoperm (BD biosciences, Franklin Lakes, NJ), and live-dead stained (live-dead aqua, ThermoFisher) per manufacturer's instructions. Antibodies used were α-collagen I (Biolegend, San Diego, CA), anti-α smooth muscle actin (αSMA) (R and D systems, Minneapolis, MN), α-ki-67 (BD biosciences), and α-talin2 (R and D systems). Compensation was performed via UltraComp beads (ThermoFisher) per the manufacturer's instructions.

[4] = test system: human monocyte-derived myofibroblasts; experiment: Legendplex ELISA of conditioned media, human monocyte-derived myofibroblasts; type: cell-based; details: antibody 500 ng/ml, leukadherin 2 ng/ml
Description: Supernatant from cultured human and mouse myofibroblasts were thawed at 4 C, and centrifuged at 4 C and 10,000×G to pellet cell debris. Supernatant was taken and added to 96 well round bottom plates, in duplicate. Legendplex (Biolegend) beads against general inflammation markers were added, according to the manufacturer's instructions. Sample readouts were normalized to each individual donor control.

[5] = test system: mouse monocyte-derived myofibroblasts; experiment: Flow cytometry of mouse monocyte-derived myofibroblasts treated with antibodies or leukadherin; type: cell-based; details: antibody 500 ng/ml
Source text: as §1, §2

[6] = test system: human monocyte-myofibroblast differentiation; experiment: Human monocyte-myofibroblast de-differentiation assessed by morphology; type: cell-based; details: added to culture of human monocyte-myofibroblasts (FIG. 1A, 1B)
Description: Monocytes were purified from PBMCs by use of a negative selection kit for human monocytes (Stemcell, Cambridge, MA), per the manufacturer's instructions. Approximately 20 million monocytes were purified from each filter. Monocytes were then washed by PBS using five successive 300×G centrifugation steps, in order to remove EDTA from the resulting population. Monocytes were checked for purity using flow cytometry, and average purity was above 95%. Monocytes were cultured immediately following purification, at 100,000 monocytes/cm^2.
Human and mouse monocytes were cultured as previously described, using serum-free media (SFM). Briefly, SFM for human cells is composed of fibrolife (Lifeline, Frederick, MD), with 1× ITS-3 (Sigma, St. Louis, MO), 1× HEPES buffer (Sigma), 1× non-essential amino acids (Sigma), 1× sodium pyruvate (Sigma), and penicillin-streptomycin with glutamate (Sigma). For mouse monocytes, 2× concentrations of ITS-3, HEPES buffer, non-essential amino acids, and sodium pyruvate were added, with 50 μM β-mercaptoenthanol (ThermoFisher) and pro-fibrotic supplements M-CSF (25 ng/ml, Peprotech, Rocky Hill, NJ) and IL-13 (50 ng/ml) to induce myofibroblast differentiation. Additionally, M-CSF and IL-13 were refreshed in the media of mouse monocytes after 3 days of culture. Monocytes were allowed to differentiate for 5 days, and counted based on morphology as previously described. […]

[7] = molecular target: Integrin-αM (human, on monocyte-derived myofibroblasts) (human) (UniProt P11215); experiment: cell-based or functional assay
[8] = test system: mouse fibroblast-derived myofibroblasts; experiment: Flow cytometry of mouse fibroblast-derived myofibroblasts treated with siRNA; type: cell-based; details: 50 nM siRNA
Description: Human fibroblasts (MRC-5, ATCC, Manassas, VA) and mouse fibroblasts (NIH-3T3, ATCC) were cultured in SFM composed for human cells, with 1× concentrations of additives. TGF-b (Peprotech) was added to induce myofibroblast formation at 5 ng/ml. Cells were cultured at 10,000/cm^2, and TGF-β was refreshed in cultures weekly to maintain the myofibroblast phenotype.
The SMARTpool of siRNA targeting human talin2 contained four target sequences, while the anti-parallel corresponding siRNA sequences actually silenced the mRNA. Target sequences: #1 (CCAGAAAACUGAACGAUUA) (SEQ ID NO:29), #2 (GCCCUGUCCUUAAAGAUUU) (SEQ ID NO:30), #3 (CGACUGUGGUUAAAUACUC) (SEQ ID NO:31), and #4 (CGAGAAAGCUUGUGAGUUU) (SEQ ID NO:32). SMARTpool targeting mouse talin2 also contained four target sequences: #1 […], #2 (CUGGAAAAUUCAGUGAUGA) (SEQ ID NO:26), #3 (CCCUGGAUUUUGAAGAACA) (SEQ ID NO:27), and #4 (CCAUCGAGUACAUAAAACA) (SEQ ID NO:28). Control non-targeting SMARTpools contained 4 target sequences, including: #1 (CCAGAAAACUGAACGAUUA) (SEQ ID NO:29), #2 (GCCCUGUCCUUAAAGAUUU) (SEQ ID NO:30), #3 (CGACUGUGGUUAAAUACUC) (SEQ ID NO:31), and #4 (CGAGAAAGCUUGUGAGUUU) (SEQ ID NO:32). Individual siRNA tested in mice was talin2 siRNA #2, target: 5′ CUGGAAAAUUCAGUGAUGA 3′ (SEQ ID NO:26), anti-sense: 5′ UCAUCACUGAAUUUUCCAG 3′ (SEQ ID NO:37). […]

[9] = test system: mouse monocyte-derived myofibroblasts; experiment: Flow cytometry of mouse monocyte-derived myofibroblasts treated with siRNA; type: cell-based; details: 50 nM siRNA mixtures or individual siRNAs (FIG. 27D)
Description: Human and mouse monocytes were cultured as previously described, using serum-free media (SFM). Briefly, SFM for human cells is composed of fibrolife (Lifeline, Frederick, MD), with 1× ITS-3 (Sigma, St. Louis, MO), 1× HEPES buffer (Sigma), 1× non-essential amino acids (Sigma), 1× sodium pyruvate (Sigma), and penicillin-streptomycin with glutamate (Sigma). For mice, 2× concentrations of ITS-3, HEPES buffer, non-essential amino acids, and sodium pyruvate are added. For mouse monocytes, […] beta-mercaptoenthanol (ThermoFisher) was also added, as were pro-fibrotic supplements M-CSF (25 ng/ml, Peprotech, Rocky Hill, NJ) and IL-13 (50 ng/ml). Additionally, M-CSF and IL-13 were refreshed in the media of mouse monocytes after 3 days of culture.
Accell Silencing RNA (siRNA, Dharmacon, Lafayette, CO) is specifically engineered to penetrate cells without the use of transfection reagents, due to a cholesterol modification at one terminus of the sequence. […] Thus, Accell siRNA targets all cells in a population, not just those that are replicating. […] Lastly, Accell siRNA contains a modification that inhibits enzymatic digestion within cells. Thus, Accell siRNA made a natural choice for this experiment, and all siRNAs used in this study are Accell siRNA. siRNA was resuspended in RNAse-free ultrapure water, as per the manufacturer's instructions. […]

[10] = test system: bleomycin insult to mouse lungs; experiment: Bleomycin lung fibrosis model, lung instillation of talin2 siRNA; type: in vivo
talin1 and talin2 = details: literature [83]; cited from earlier work

Compound: COC(=O)c1ccc2c(c1)NC(=O)/C2=C(\Nc1ccc(N(C)C(=O)CN2CCN(C)CC2)cc1)c1ccccc1 [nintedanib]
- effect on progression of fibrosis (fibrosis): slow, but do not reverse, the progression of fibrosis

Compound: α-αMβ2 (MAC1, clone CBRM1/5) (antibody)
- IC50 for human monocyte-myofibroblast differentiation (de-differentiation by morphology) [1]: 63.3 ng/ml

Compound: leukadherin
- myofibroblast de-differentiation or differentiation by morphology [2]: increased monocyte-derived myofibroblast differentiation
- αSMA+ collagen I+ double positive cells ([3]; flow cytometry (FIG. 1C)): increased the amount of αSMA^+ collagen I^+ double positive cells
- talin2 expression ([3]; flow cytometry (FIG. 1D)): nor integrin interaction promoters (Gi14, leukadherin) significantly altered talin2 expression
- secreted MCP1 ([4]; conditioned media after 1 week (FIG. 9A)): promoted the secretion of MCP1
- secreted IL-6 ([4]; conditioned media after 1 week (FIG. 9C)): promoted the secretion of MCP1 (FIG. 9A) and IL-6
- αSMA+ and collagen I+ double positive myofibroblasts ([5]; leukadherin 2 ng/ml (FIG. 2C)): increased both the amount of α αSMA^+ and collagen I^+ double positive monocyte-myofibroblasts
- talin2+ cells / talin2 concentration ([5]; leukadherin 2 ng/ml (FIG. 2D)): increasing talin2 concentration in these cells
- myofibroblast de-differentiation or differentiation as determined by morphology [6]: promoted myofibroblasts differentiation

Compound: α-αM (clone ICRF44) (antibody)
- IC50 for human monocyte-myofibroblast differentiation (de-differentiation by morphology) [7]: 59.7 ng/ml

Compound: Cc1ccc(=O)n(-c2ccccc2)c1 [pirfenidone]
- effect on progression of fibrosis (fibrosis): slow, but do not reverse, the progression of fibrosis

Compound: talin2 siRNA #2: individual Accell siRNA against mouse talin2; target CUGGAAAAUUCAGUGAUGA (SEQ ID NO:26), antisense UCAUCACUGAAUUUUCCAG (SEQ ID NO:37) (Accell modifications, chemistry not fully specified)
- αSMA and collagen I double-positive myofibroblasts ([8]; mouse cell cultures (FIG. 28C)): most reduced both αSMA and collagen I double-positive
- talin2 positive myofibroblasts ([8]; mouse cell cultures (FIG. 28D)): most reduced both αSMA and collagen I double-positive (FIG. 28C) and talin2 positive (FIG. 28D) myofibroblasts
- αSMA and collagen I double-positive cells / myofibroblast differentiation [9]: inhibited myofibroblast differentiation by itself
- mouse weight ([10]; 200 nM by lung instillation at 7, 9, 11, 14, 16, 18 days post bleomycin, to day 21 (FIG. 29A)): showed a lesser transient weight decrease than did the controls
- amount of collagen in the lungs (hydroxyproline assay) ([10]; 200 nM by lung instillation x6, day 21 (FIG. 29B-C)): reduced the amount of collagen in the lungs
- blinded Ashcroft scoring of Masson's trichrome-stained lung sections ([10]; 200 nM by lung instillation x6, day 21 (FIG. 29D)): improved the histological readout of lung fibrosis
- lung fibrosis in Masson's trichrome images ([10]; vs non-targeting siRNA and untreated fibrotic lungs (FIG. 29E-L)): rescued lung fibrosis compared to non-targeting siRNA and untreated fibrotic lungs

Compound: PRM-151: recombinant pentraxin-2
- effect on progression of fibrosis (fibrosis): shown even a modest ability to reverse fibrosis in some patients

Compound: O=C(COc1ccc2c(c1)OCO2)NC(=O)NCCc1c[nH]c2ccccc12 [KCH-1521]
- adhesion-dependent angiogenesis (talin1 and talin2): decreases adhesion-dependent angiogenesis
- distinction between talin1 and talin2 (talin1 and talin2): does not distinguish between talin1 and talin2
